Non-standard residues stand in square brackets, D forms with d. Residues, ends and D or L forms follow the SMILES beside them. *: point of attachment. Sta = CC(C)C[C@H](N)[C@@H](O)CC(=O)O; Isovaleryl = CC(C)CC(=O)*
Legend:
renin = molecular target: T1, renin (Homo sapiens, UniProt P00797); assay: renin inhibition (IC50 printed in the synthesis example, no method described); assay type: biochemical
T1 sequence (P00797 67-406): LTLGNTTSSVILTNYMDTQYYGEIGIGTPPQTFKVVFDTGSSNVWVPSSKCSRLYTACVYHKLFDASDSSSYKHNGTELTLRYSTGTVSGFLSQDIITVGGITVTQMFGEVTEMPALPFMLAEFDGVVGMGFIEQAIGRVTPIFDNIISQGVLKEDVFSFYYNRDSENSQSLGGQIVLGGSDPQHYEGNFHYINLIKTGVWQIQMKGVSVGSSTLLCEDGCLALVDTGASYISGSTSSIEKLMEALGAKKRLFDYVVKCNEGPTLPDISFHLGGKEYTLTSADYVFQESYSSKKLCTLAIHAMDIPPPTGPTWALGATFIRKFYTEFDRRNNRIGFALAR

hog renin = conditions: after the injection of hog renin into nephrectomized rats; Gross et al., Science 175:656, 1972; cited from earlier work

| SMILES | IC50 (renin) [nM] | blood pressure in vivo (hog renin) |
| --- | --- | --- |
| CC(C)S(=O)(=O)C[C@@H](CCc1ccccc1)C(=O)N[C@@H](Cc1cnc[nH]1)C(=O)N[C@@H](CC1CCCCC1)[C@@H](O)CC(=O)NC1CN2CCC1CC2 (stereo partly drawn) [3-benzyl-2-(S)-(isopropylsuffonylmethyl)propionyl-L-histidyl-(3S,4S)-4-amino-5-cyclohexyl 3-hydroxypentanoyl 3-quinuclidinyl amide] | 11 |  |
| CC(C)CC(=O)N[C@H](C(=O)N[C@H](C(=O)N[C@@H](CC(C)C)[C@@H](O)CC(=O)N[C@@H](C)C(=O)N[C@@H](CC(C)C)[C@@H](O)CC(=O)O)C(C)C)C(C)C [pepstatin] (Isovaleryl-VV[Sta]A[Sta]-OH) |  | reduces blood pressure |

— patent EP0278158A2, “Renin inhibitors containing phenylalanyl-histidine replacements” (Merck & Co., Inc., priority 1986, dated 1988)
